Measured values published in ChEMBL document CHEMBL1133725, “Modeling of kappa-opioid receptor/agonists interactions using pharmacophore-based and docking simulations” (J Med Chem, 2000).

Columns and labels:
[1] = target: T1, Kappa-type opioid receptor (Cavia porcellus, UniProt P41144); test: Inhibition of [3H]diprenorphine binding to Opioid receptor kappa 1 in guinea pig cerebellar fraction
[2] = target: T1, Kappa-type opioid receptor; test: Inhibition of [3H]EKC binding to Opioid receptor kappa 1 in guinea pig forebrain
[3] = target: T1, Kappa-type opioid receptor; test: Inhibition of [3H]U-69593 binding to Opioid receptor kappa 1 in guinea pig brain homogenates; format: tissue-based

T1 sequence (P41144 whole entry): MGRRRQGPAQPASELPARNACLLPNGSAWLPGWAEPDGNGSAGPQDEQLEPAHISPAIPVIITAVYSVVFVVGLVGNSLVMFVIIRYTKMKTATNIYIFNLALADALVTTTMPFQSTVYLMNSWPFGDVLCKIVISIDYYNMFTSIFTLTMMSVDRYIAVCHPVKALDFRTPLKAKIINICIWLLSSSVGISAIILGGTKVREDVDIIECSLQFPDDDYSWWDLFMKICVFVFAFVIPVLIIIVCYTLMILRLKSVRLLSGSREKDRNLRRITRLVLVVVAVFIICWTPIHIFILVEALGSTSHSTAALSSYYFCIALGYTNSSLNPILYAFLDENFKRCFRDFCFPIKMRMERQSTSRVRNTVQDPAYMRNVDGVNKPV

COC(=O)[C@]1(c2ccccc2)C[C@@H]1CN1CC[C@@]2(C)c3cc(O)ccc3CC1[C@@H]2C
Ki [1]: 240 nM

O=C1[C@@H](c2ccc(Cl)c(Cl)c2)CCN1[C@H]1CCCC[C@@H]1N1CCCC1
Ki [2]: 10 nM

O=C1N(c2ccc(Cl)c(Cl)c2)CCCN1[C@H](CN1CCCC1)c1ccccc1
Ki [3]: 0.42 nM

O=C([C@@H]1CCc2cc(Cl)c(Cl)cc21)N1CCSC[C@H]1CN1CCCC1
Ki [3]: 0.44 nM

CN1CCCC1[C@@H]1CCCCN1C(=O)Cc1ccc(Cl)c(Cl)c1 (stereo not given in full)
Ki [3]: 0.33 nM
